{"source": "paper PMC8601123", "about": "“Drug delivery, biodistribution and anti-EGFR activity: theragnostic nanoparticles for simultaneous in vivo delivery of tyrosine kinase inhibitors and kinase activity biosensors” (Nanoscale, 2021)", "key": {"EGFR [1]": {"target": "T1, EGFR (Homo sapiens, UniProt P00533)", "T1 construct": "endogenous in cells; host or cells: LIM1215 colon cancer cells", "experiment": "FRET-FLIM analysis of EGF-induced EGFR activity with Picchu-X biosensor in cells", "assay_type": "cell-based", "design": "inhibition of EGF-induced EGFR activity (FRET-FLIM), difference between the groups: dose or concentration left out as unconfirmed", "text": "We then prepared variant lipopolyplex formulations, based on CLA1 and including the EGFR inhibitor K16Cys-S-S-[PEG6-IPQA] 1 (Table 1). […] For efficient perfusion through the leaky endothelial cells of the tumor, lipopolyplexes must be <150 nm in diameter. […] We also carried out in vitro studies to check that the disulfide linker between K16Cys and PEG-IPQA was labile under pseudo-intracellular conditions (GSH/GSSG, HEPES, pH 7.2).[66] […] Next, we assessed the effectiveness of K16Cys-S-S-[PEG6-IPQA] 1 as an inhibitor of EGFR activity as a free therapeutic or within lipopolyplexes by utilizing FRET-FLIM and validating our results by western blot (WB) techniques. […]\nA10 μM solution of the non-radiolabelled F1LA1 K16Cys-S-S-[PEG6-IPQA] lipopolyplex was applied to cells at 60% confluence in 96-well-plates. […] Time-domain fluorescence lifetime images were acquired via time correlated single photon counting (TCSPC) at a resolution of 256 by 256 pixels, with 256 time bins and 100 frames accumulated over 300 seconds, via excitation and emission filters suitable for the detection of GFP fluorescence (Excitation filter: Semrock FF01-470/22 nm; Beam Splitter: Edmund 48NT-392 30R/70 T; Emission filter: Semrock FF01-510/20 nm). […]"}, "EGFR [2]": {"target": "T1, EGFR", "experiment": "Western blot of EGFR phosphorylation, time course of inhibitory effect", "assay_type": "cell-based", "conditions": "for duration of EGFR inhibition: western blot (Fig. 2d)", "text": "(§1) We then prepared variant lipopolyplex formulations, based on CLA1 and including the EGFR inhibitor K16Cys-S-S-[PEG6-IPQA] 1 (Table 1). […] For efficient perfusion through the leaky endothelial cells of the tumor, lipopolyplexes must be <150 nm in diameter. […] We also carried out in vitro studies to check that the disulfide linker between K16Cys and PEG-IPQA was labile under pseudo-intracellular conditions (GSH/GSSG, HEPES, pH 7.2).[66] […] Next, we assessed the effectiveness of K16Cys-S-S-[PEG6-IPQA] 1 as an inhibitor of EGFR activity as a free therapeutic or within lipopolyplexes by utilizing FRET-FLIM and validating our results by western blot (WB) techniques. Activation of EGFR in cells treated with EGF (natural ligand for EGFR) was evident by decreasing lifetime of green fluorescent protein (GFP) in Picchu-X biosensor (Fig. 2c) and by appearance of phosphorylated EGFR band in WB image (Fig. 2d). In both cases pre-treatment with MeO-[PEG6-IPQA]\nFig. 2 Effect of different lipopolyplex formulations and drug loading on the expression of EGFR in targeted cells and inhibition of its activity upon stimulation with EGF. LIM1215 cells transfected with different lipopolyplexes without inhibitor (CLA1–4, NAE1–4, NGE1–4) (a) or with increasing amount of inhibitor per particle (F1LA1–3, F2LA1–3) (b) 24 h after seeding.\nLIM1215, DiFi, SW48 and DLD1 colon cancer cell lines (independently validated by STR DNA fingerprinting at The Institute of Cancer Research (London, UK), were maintained in RPMI-1640 (Life Technologies Ltd). Antibodies: anti-EGFR (clone D38B1) anti-p-Y1173-EGFR (clone 53A5) were from Cell Signaling Technology Ltd."}, "LIM1215 xenografts": {"tested_on": "LIM1215 xenografts", "experiment": "In vivo radioactive organ biodistribution in LIM1215 xenograft mice", "design": "species or system CD1 nu/nu mice", "method": "Fig. 3 In vivo radioactive organ biodistribution data presented in % Injected Dose per gram (%ID g^−1) for MeO-[PEG6-[^125I]-IPQA] 8 (black columns) and F1LA1 K16Cys-SMal-[PEG3-[^125I]-IPQA] 9 lipopolyplex (grey columns) 3, 6 and 24 h after injection. The tumor %ID g^−1 at 3, 6 and 24 h for both tracers is represented on a separate graph.\nAll animal studies were approved by the University College London Biological Services Ethical Review Committee and licensed under the UK Home Office regulations and the Guidance for the Operation of Animals (Scientific Procedures) Act 1986 (Home Office, London, United Kingdom). 12 female 6–8 weeks old CD1 nu/nu mice (Charles River Laboratories, UK) were injected subcutaneously in the right flank with 2 × 10^6 LIM1215 cells in 100 μL PBS. Once palpable tumors were measure in three orthogonal directions using the following equation: length × height × width × π/6. Once tumors had reached approximately 70–100 mm^3 mice were randomly divided into 2 groups; group 1 received an intravenous injection of 0.5Mbq MeO-[PEG6-[^125I]-IPQA] 8 (n = 6), group 2 received an intravenous injection of 0.5MBq F1LA1 K16Cys-SMal-[PEG3-[^125I]-IPQA]-lipopolyplex (n = 6). Mice were then culled at 3, 6 and 24 hours (n = 2 per time point) and all organs were taken, weighed and ^125I uptake quantified using a gamma counter (Wizard, PerkinElmer) to obtain % Injected dose per gram (%ID g^−1)."}, "EGFR [3]": {"tested_on": "EGFR", "experiment": "EGFR activation by EGF in SW48 cells, western blot", "assay_type": "cell-based", "conditions": "serum-free 24 h, 1 h pre-treatment, EGF 100 ng/mL 5 min, western blot (Fig. S1)", "method": "To test the ability of lipopolyplexes to deliver pDNA and inhibitor we used LIM1215 colon cancer cells. […] As a control, to check the response of the colorectal cancer cell lines to this class of TKI, we prepared an analogue of 1, with the disulfide-linked peptide replaced with an –OMe group. TKI analogue MeO-[PEG6-IPQA]\nOptimization of EGFR inhibitor delivery to target cells\nFigure S1. Effect of MeO-[PEG6-IPQA] (8) on EGFR activation by EGF in SW48 cells.\nCells were seeded in 6-well plate, 48 h later media was changed for media without serum. 24 h later cells were pre-treated with MeO-[PEG6-IPQA] (8) at indicated concentrations for 1 h followed by treatment with EGF (100 ng/mL) for 5 min. Cells were lysed and subjected to western blot analysis for activation/phosphorylation of EGFR and downstream signalling […]\n(1 picture or pasted object on this page, not shown here)"}, "[4]": {"conditions": "cited from earlier work", "text": "This approach also allowed us to further investigate the basis for the enhanced circulation and better tumour selectivity afforded by nanoparticle delivery of small molecule therapeutics. […] This phenomenon will need further investigation of potential differences in trafficking of the drug within the cell post-uptake, both in terms of the subcellular compartments involved and kinetics of intracellu ..."}, "[5]": {"experiment": "Cleavage of the disulfide linker under pseudo-intracellular conditions", "assay_type": "physicochemical", "conditions": "reducing pseudo-intracellular conditions, GSH/GSSG, HEPES, pH 7.2 (Fig. S7)", "text": "as §1"}}}
{"compound": "C=CC(=O)Nc1cc2c(Nc3cccc(I)c3)ncnc2cc1OCCOCCOCCOCCOCCOCCOC", "note": "[Compound 8, MeO-[PEG6-IPQA]]", "values": [{"measurement": "lifetime of GFP in Picchu-X biosensor after EGF", "setting": "EGFR [1]; pre-treatment for 1 h, then EGF (Fig. 2c)", "result": "remained at baseline levels"}, {"measurement": "duration of EGFR inhibition", "setting": "EGFR [2]; free agent", "result": 24, "unit": "h"}, {"measurement": "level of EGFR phosphorylation", "setting": "EGFR [2]; pre-treatment for 1 h, EGF stimulation, western blot (Fig. 2d, line 8 vs. line 2)", "result": "significantly lower than in the sample without inhibitor"}, {"measurement": "organ uptake", "setting": "LIM1215 xenografts; i.v. 0.5 MBq, 3, 6 and 24 h, 125I gamma counting, %ID g-1 (Fig. 3)", "result": "high uptake in gallbladder and intestines at 3 and 6 h"}, {"measurement": "clearance route", "setting": "LIM1215 xenografts; i.v. 0.5 MBq, 125I gamma counting, n = 2 per time point", "result": "rapidly cleared via the hepatobiliary route"}, {"measurement": "time of highest tumor uptake", "setting": "LIM1215 xenografts; i.v. 0.5 MBq, time points 3, 6 and 24 h, gradual reduction over 24 h", "result": 3, "unit": "h"}, {"measurement": "inhibition of EGFR activation by EGF", "setting": "EGFR [3]", "result": "potent inhibitor of EGFR activation"}]}
{"compound": "C=CC(=O)Nc1cc2c(Nc3cccc(I)c3)ncnc2cc1OCCOCCOCCOCCOCCOCCF", "note": "[[^18F]F-PEG6-IPQA]", "values": [{"measurement": "selectivity for tumour cells", "setting": "[4]", "result": "little selectivity for tumour cells"}, {"measurement": "in vivo clearance", "setting": "[4]; compared with Mo-IPQA", "result": "quicker in vivo clearance"}]}
{"compound": "K16Cys-S-S-[PEG6-IPQA] [Compound 1]", "values": [{"measurement": "time to cleavage of disulfide linkage", "setting": "[5]", "result": "≤ 5", "unit": "min"}, {"measurement": "inhibition of EGF-induced EGFR activity (FRET-FLIM), difference between the groups", "setting": "EGFR [1]; free agent, P = 0.03 (Fig. 2c legend)", "result": "statistically significant"}, {"measurement": "duration of EGFR inhibition", "setting": "EGFR [2]; delivered within lipopolyplexes", "result": "up to 48 h"}, {"measurement": "EGFR activity, inhibitor within lipopolyplexes", "setting": "EGFR [2]; delivered within lipopolyplexes, western blot (Fig. 2d, lines 3-7 vs. line 2)", "result": "equally low levels as the free drug"}]}
